Measurements taken from patent EP0525960B1, “Use of rapamycin for the treatment of adult T-cell leukemia/lymphoma” (AMERICAN HOME PRODUCTS CORPORATION, priority 1991, dated 1993).

Columns and labels:
Assay in all cases: Inhibition of ATL cell proliferation (tritiated thymidine incorporation)
Assay type in all cases: cell-based
31016 = conditions: Homo sapiens, Rapamycin Concentration 100 fM, 24 hours, read-out: PERCENT INHIBITION OF ATL CELL PROLIFERATION
Procedure: (§1) The effect of rapamycin on ATL was established in an in vitro standard pharmacological test procedure using ten human HTLV-1 transformed T-cell lines cultured from ATL patients. These cell lines are presently the best models for ATL in humans. Cyclosporin A (CsA) was also evaluated for the purpose of comparison. The procedure used and results obtained are described below.
(§2) ATL cell lines were established according to known literature procedures. ATL5S, ATL3I, and ATL1K were established according to the method of Hoshino [Proc. Natl. Acad. Sci, 80: 6061(1983)]. The cell lines 31008, 31009, 31016 and AT(EGG) were established from peripheral blood of HTLV-1 infected individuals via co-culture with cord blood lymphocytes. The cell line MALN was isolated from lymphoid tumor tissue of an HTLV-1 infected ATL patient seen at Jackson Memorial/University of Miami Medical Center. [Harrington, W.J., Jr., J. Acq. Imm. Def. Dis., 4: 284 (1991)]. The primary cultures BL and GP were initiated from peripheral blood of ATL patients. The MALN, BL, and GP cell lines were initiated without co-cultivation.
(§3) Cells were adjusted to a concentration of 1x10⁶ cells/mL in RPMI 1640 with 15% fetal bovine serum and were supplemented with 50 U/mL penicillin, 50 µg/mL streptomycin, and 2 mM glutamine. […] Drug concentrations evaluated ranged from 1µM to 100 fM. Cultures were incubated at 37°C, 5% CO₂ for 24 hours followed by a 4 hr. pulse with 0.5 µCi of tritiated thymidine. Thymidine incorporation was measured by liquid scintillation counting, and the results expressed in counts per minute (cpm). The results obtained from the mean of four evaluations at each concentration were compared with control values to determine percent inhibition. The following formula was used to calculate the percent inhibition: Percent Inhibition =(cpm[no drug] - cpm[drug])/(cpm[no drug])x 100 [formula] The percent inhibition obtained with rapamycin is shown in the following table.

ATL3I = conditions: Homo sapiens, 24 hours, read-out: PERCENT INHIBITION OF ATL CELL PROLIFERATION
Procedure: as §1, §2, §3

GP = conditions: Homo sapiens, 24 hours, read-out: PERCENT INHIBITION OF ATL CELL PROLIFERATION
Procedure: as §1, §2, §3

ATL1K = conditions: Homo sapiens, 24 hours, read-out: PERCENT INHIBITION OF ATL CELL PROLIFERATION
Procedure: as §1, §2, §3

31009 = conditions: Homo sapiens, 24 hours, read-out: PERCENT INHIBITION OF ATL CELL PROLIFERATION
Excerpt: as §2
(§4) Cells were adjusted to a concentration of 1x10⁶ cells/mL in RPMI 1640 with 15% fetal bovine serum and were supplemented with 50 U/mL penicillin, 50 µg/mL streptomycin, and 2 mM glutamine. […] Drug concentrations evaluated ranged from 1µM to 100 fM. Cultures were incubated at 37°C, 5% CO₂ for 24 hours followed by a 4 hr. pulse with 0.5 µCi of tritiated thymidine. Thymidine incorporation was measured by liquid scintillation counting, and the results expressed in counts per minute (cpm).

ATL5S = conditions: Homo sapiens, 24 hours, read-out: PERCENT INHIBITION OF ATL CELL PROLIFERATION
Excerpt: as §2, §4

## CO[C@H]1C[C@@H]2CC[C@@H](C)[C@@](O)(O2)C(=O)C(=O)N2CCCC[C@H]2C(=O)O[C@H]([C@H](C)C[C@@H]2CC[C@@H](O)[C@H](OC)C2)CC(=O)[C@H](C)/C=C(\C)[C@@H](O)[C@@H](OC)C(=O)[C@H](C)C[C@H](C)/C=C/C=C/C=C/1C [Rapamycin]
31016
  inhibition at 100 fM: 44%
ATL3I; Rapamycin Concentration 1 pM
  inhibition at 1 pM: 11%
ATL3I; Rapamycin Concentration 10 pM
  inhibition at 10 pM: 6%
ATL3I; Rapamycin Concentration 100 pM
  inhibition at 0.0001 µM: 11%
ATL3I; Rapamycin Concentration 1 nM
  inhibition at 0.001 µM: 18%
ATL3I; Rapamycin Concentration 10 nM
  inhibition at 0.01 µM: 15%
ATL3I; Rapamycin Concentration 100 nM
  inhibition at 0.1 µM: 17%
ATL3I; Rapamycin Concentration 1 µM
  inhibition at 1 µM: 28%
ATL3I; Rapamycin Concentration 100 fM
  inhibition at 100 fM: 7%
GP; Rapamycin Concentration 1 pM
  inhibition at 1 pM: 20%
GP; Rapamycin Concentration 10 pM
  inhibition at 10 pM: 14%
GP; Rapamycin Concentration 100 pM
  inhibition at 0.0001 µM: 39%
GP; Rapamycin Concentration 1 nM
  inhibition at 0.001 µM: 42%
GP; Rapamycin Concentration 10 nM
  inhibition at 0.01 µM: 46%
GP; Rapamycin Concentration 100 nM
  inhibition at 0.1 µM: 46%
GP; Rapamycin Concentration 1 µM
  inhibition at 1 µM: 54%
GP; Rapamycin Concentration 100 fM
  inhibition at 100 fM: 23%
ATL1K; Rapamycin Concentration 1 pM
  inhibition at 1 pM: 15%
ATL1K; Rapamycin Concentration 10 pM
  inhibition at 10 pM: 12%
ATL1K; Rapamycin Concentration 100 pM
  inhibition at 0.0001 µM: 23%
ATL1K; Rapamycin Concentration 1 nM
  inhibition at 0.001 µM: 26%
ATL1K; Rapamycin Concentration 10 nM
  inhibition at 0.01 µM: 18%
ATL1K; Rapamycin Concentration 100 nM
  inhibition at 0.1 µM: 32%
ATL1K; Rapamycin Concentration 1 µM
  inhibition at 1 µM: 19%
ATL1K; Rapamycin Concentration 100 fM
  inhibition at 100 fM: 15%
31009; Rapamycin Concentration 1 pM
  inhibition at 1 pM: 59%
31009; Rapamycin Concentration 10 pM
  inhibition at 10 pM: 47%
31009; Rapamycin Concentration 100 pM
  inhibition at 0.0001 µM: 61%
31009; Rapamycin Concentration 1 nM
  inhibition at 0.001 µM: 68%
31009; Rapamycin Concentration 10 nM
  inhibition at 0.01 µM: 67%
31009; Rapamycin Concentration 100 nM
  inhibition at 0.1 µM: 70%
31009; Rapamycin Concentration 1 µM
  inhibition at 1 µM: 71%
31009; Rapamycin Concentration 100 fM
  inhibition at 100 fM: 60%
ATL5S; Rapamycin Concentration 1 pM
  inhibition at 1 pM: 14%
ATL5S; Rapamycin Concentration 10 pM
  inhibition at 10 pM: 38%
ATL5S; Rapamycin Concentration 100 pM
  inhibition at 0.0001 µM: 47%
ATL5S; Rapamycin Concentration 1 nM
  inhibition at 0.001 µM: 48%
ATL5S; Rapamycin Concentration 10 nM
  inhibition at 0.01 µM: 49%
ATL5S; Rapamycin Concentration 100 nM
  inhibition at 0.1 µM: 58%
ATL5S; Rapamycin Concentration 1 µM
  inhibition at 1 µM: 59%
ATL5S; Rapamycin Concentration 100 fM
  inhibition at 100 fM: 36%
